Results: ChEMBL document CHEMBL1129640, “Assessment of structural requirements for the monoamine oxidase-B-catalyzed oxidation of 1,4-disubstituted-1,2,3,6-tetrahydropyridine derivatives related to the neurotoxin 1-methyl-4-phenyl-1,2,3,6-tetrahydropyridine” (J Med Chem, 1996)

Legend:
[1] = molecular target: T1, Amine oxidase [flavin-containing] B (Bos taurus, UniProt P56560); assay: Ratio of Kcat and KM against monoamine oxidase B (MAO-B) from beef liver was calculated; settings: cattle
T1 sequence (P56560 whole entry): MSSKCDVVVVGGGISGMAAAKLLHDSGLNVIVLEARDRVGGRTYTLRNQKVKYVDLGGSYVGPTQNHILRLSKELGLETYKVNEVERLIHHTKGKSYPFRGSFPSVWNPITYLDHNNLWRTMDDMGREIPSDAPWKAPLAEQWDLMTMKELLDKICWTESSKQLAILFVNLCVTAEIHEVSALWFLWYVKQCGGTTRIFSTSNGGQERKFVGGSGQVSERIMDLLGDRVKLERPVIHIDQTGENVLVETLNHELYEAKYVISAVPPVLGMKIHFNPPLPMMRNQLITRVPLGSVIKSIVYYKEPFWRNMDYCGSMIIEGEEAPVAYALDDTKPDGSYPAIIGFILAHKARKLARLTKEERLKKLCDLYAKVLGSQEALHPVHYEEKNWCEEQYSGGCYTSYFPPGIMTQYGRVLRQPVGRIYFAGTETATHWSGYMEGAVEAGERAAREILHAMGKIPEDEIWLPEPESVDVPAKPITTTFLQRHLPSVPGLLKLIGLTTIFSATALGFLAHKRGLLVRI

[2] = molecular target: T1, Amine oxidase [flavin-containing] B; assay: Catalytic constant was measured against monoamine oxidase B (MAO-B) from beef liver; settings: cattle

Structure (SMILES)	Ratio [1]	k cat [2]
Clc1ccc(C2=CCNCC2)cc1	382	
C1=C(Oc2cccs2)CC[N+](C2CC2)=C1	1900	
Cn1cccc1C1=CC=[N+](C2CC2)CC1	413	
CN1CC=C(OC(=O)N(C)C)CC1	57	
C#CC1=CCN(C)CC1	790	
C1=C(Oc2ccccc2)CC[N+](C2CC2)=C1	1650	
CCOC(=O)C1=CCN(C)CC1	433	
C1=C(Cc2ccccc2)CC[N+](C2CC2)=C1	1538	
CN1CC=C(CCc2ccccc2)CC1	1130	
C[C@@H]1NC(=O)[C@H](NC(=O)[C@@H](N)Cc2ccc(O)cc2)C(C)(C)SSC(C)(C)[C@@H](C(O)O)NC(=O)[C@H](Cc2ccccc2)NC1=O	19	
CN1CC=C(c2cccs2)CC1	55	
CN1CC=C(c2ccccc2)CC1		3.4 s⁻¹
CCCN1CC=C(c2ccccc2)CC1	4	
CN1CC=C(C(C)(C)C)CC1	92	
Cc1ccccc1C1=CC=[N+](C2CC2)CC1	630	
Clc1ccc(OC2=CC=[N+](C3CC3)CC2)cc1	136	
CN1CC=C(c2ccc([N+](=O)[O-])cc2)CC1	16	
CN1CC=C(c2ccc(N)cc2)CC1	54	
CN1CC=C(Cn2cccc2)CC1	347	
CN1CC=C(/C=C\c2ccccc2)CC1	912	
CN1CC=C(OC(=O)N(C)c2ccccc2)CC1	67	
CN1CC=C(C2CC2)CC1	974	
C=CC1=CCN(C)CC1	2370	
CN1CC=C(Cc2ccccc2)CC1	3580	
CN1CC=C(Oc2ccccc2)CC1	4151	
O=C([O-])C(=O)O.O=[N+]([O-])c1ccc(OC2=CC=[N+](C3CC3)CC2)cc1	150	
C1=C(c2ccccc2)CCNC1	319	
CN1CC=C(C2CCCCC2)CC1	688	
